Values quoted from earlier work in patent US20160136093A9, “ENGINEERED AEROSOL PARTICLES, AND ASSOCIATED METHODS” (priority 2009, published 2016).

Test system: non-replicating TB
Details: after one month, in vitro

Capreomycin
decrease in colony forming units (CFU): one to two
